Test results as given in PubChem BioAssay (NCI).
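How tested: cells in 96-well plates exposed to compound for 48 hours at five concentrations. At the GI50, growth is halved. The concentration for full growth arrest is given as TGI.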

Experiments:
Experiment in all cases: NCI-60 cell line screen, 48 h
SF-268 CNS = system: SF-268 CNS
EKVX NSCLC = system: EKVX NSCLC
MDA-MB-435 = system: MDA-MB-435
T-47D breast = system: T-47D breast
OVCAR-3 ovarian = system: OVCAR-3 ovarian
SR leukemia = system: SR leukemia
HS 578T breast = system: HS 578T breast
UACC-257 melanoma = system: UACC-257 melanoma
CAKI-1 renal = system: CAKI-1 renal
NCI/ADR-RES ovarian = system: NCI/ADR-RES ovarian
MCF7 breast = system: MCF7 breast
HCT-116 colon = system: HCT-116 colon
PC-3 prostate = system: PC-3 prostate
NCI-H226 lung = system: NCI-H226 lung
HCT-15 colon = system: HCT-15 colon
A498 renal = system: A498 renal
COLO 205 colon = system: COLO 205 colon
HL-60(TB) leukemia = system: HL-60(TB) leukemia
SK-MEL-28 melanoma = system: SK-MEL-28 melanoma
SNB-19 CNS = system: SNB-19 CNS
NCI-H23 lung = system: NCI-H23 lung
U251 CNS = system: U251 CNS
HOP-92 NSCLC = system: HOP-92 NSCLC
SK-MEL-5 melanoma = system: SK-MEL-5 melanoma
TK-10 renal = system: TK-10 renal
SK-OV-3 ovarian = system: SK-OV-3 ovarian
NCI-H522 lung = system: NCI-H522 lung
IGROV1 ovarian = system: IGROV1 ovarian
SF-295 CNS = system: SF-295 CNS
RPMI-8226 leukemia = system: RPMI-8226 leukemia
786-0 renal = system: 786-0 renal
OVCAR-4 ovarian = system: OVCAR-4 ovarian
HT29 colon = system: HT29 colon
SF-539 CNS = system: SF-539 CNS
BT-549 breast = system: BT-549 breast
UO-31 renal = system: UO-31 renal
HCC-2998 colon = system: HCC-2998 colon
OVCAR-5 ovarian = system: OVCAR-5 ovarian
A549 NSCLC = system: A549 NSCLC
SN12C renal = system: SN12C renal
HOP-62 NSCLC = system: HOP-62 NSCLC
MOLT-4 leukemia = system: MOLT-4 leukemia
OVCAR-8 ovarian = system: OVCAR-8 ovarian
CCRF-CEM leukemia = system: CCRF-CEM leukemia
NCI-H460 lung = system: NCI-H460 lung
SW-620 colon = system: SW-620 colon
KM12 colon = system: KM12 colon
ACHN renal = system: ACHN renal
SK-MEL-2 melanoma = system: SK-MEL-2 melanoma
DU-145 prostate = system: DU-145 prostate
K-562 leukemia = system: K-562 leukemia

Which GI50 (SF-268 CNS) does the source give for `COC1=CC(c2ccc[nH]2)=N/C1=C\c1[nH]c(C)c(C(C)=O)c1C` here?
Its GI50 is 854 nM.

What about the TGI (SF-268 CNS) of the same molecule?
The TGI was greater than 100000 nM.

And the GI50 (EKVX NSCLC)?
The GI50 was 2250 nM.

What about the TGI (EKVX NSCLC) of the same molecule?
Its TGI is greater than 100000 nM.

What about the GI50 (MDA-MB-435) of the same molecule?
Its GI50 is 299 nM.

And the TGI (MDA-MB-435)?
Its TGI is greater than 100000 nM.

And the GI50 (T-47D breast)?
The GI50 was 2750 nM.

And the TGI (T-47D breast)?
The TGI was 19200 nM.

And the GI50 (OVCAR-3 ovarian)?
Its GI50 is 178 nM.

And the TGI (OVCAR-3 ovarian)?
The TGI was greater than 100000 nM.

What about the TGI (SR leukemia) of the same molecule?
Its TGI is 379 nM.

And the GI50 (HS 578T breast)?
Its GI50 is 552 nM.

And the TGI (HS 578T breast)?
The TGI was greater than 100000 nM.

And the GI50 (UACC-257 melanoma)?
The GI50 was 3440 nM.

And the TGI (UACC-257 melanoma)?
The TGI was greater than 100000 nM.

And the GI50 (CAKI-1 renal)?
Its GI50 is 630 nM.

And the TGI (CAKI-1 renal)?
Its TGI is greater than 100000 nM.

And the GI50 (NCI/ADR-RES ovarian)?
Its GI50 is 458 nM.

And the TGI (NCI/ADR-RES ovarian)?
The TGI was greater than 100000 nM.

And the GI50 (MCF7 breast)?
The GI50 was 1050 nM.

And the TGI (MCF7 breast)?
Its TGI is greater than 100000 nM.

What about the GI50 (HCT-116 colon) of the same molecule?
Its GI50 is 57.6 nM.

What about the TGI (HCT-116 colon) of the same molecule?
The TGI was greater than 100000 nM.

And the GI50 (PC-3 prostate)?
The GI50 was 302 nM.

What about the TGI (PC-3 prostate) of the same molecule?
The TGI was greater than 100000 nM.

What about the GI50 (NCI-H226 lung) of the same molecule?
Its GI50 is 2600 nM.

And the TGI (NCI-H226 lung)?
The TGI was greater than 82100 nM.

And the GI50 (HCT-15 colon)?
The GI50 was 210 nM.

And the TGI (HCT-15 colon)?
The TGI was 2150 nM.

And the GI50 (A498 renal)?
Its GI50 is 18100 nM.

What about the TGI (A498 renal) of the same molecule?
Its TGI is 57000 nM.

And the GI50 (COLO 205 colon)?
Its GI50 is 790 nM.

What about the TGI (COLO 205 colon) of the same molecule?
Its TGI is greater than 100000 nM.

What about the GI50 (HL-60(TB) leukemia) of the same molecule?
Its GI50 is 168 nM.

And the GI50 (SK-MEL-28 melanoma)?
The GI50 was 2460 nM.

What about the TGI (SK-MEL-28 melanoma) of the same molecule?
Its TGI is greater than 100000 nM.

And the GI50 (SNB-19 CNS)?
The GI50 was 24200 nM.

And the TGI (SNB-19 CNS)?
Its TGI is greater than 100000 nM.

What about the GI50 (NCI-H23 lung) of the same molecule?
Its GI50 is 5120 nM.

And the TGI (NCI-H23 lung)?
The TGI was greater than 100000 nM.

And the GI50 (U251 CNS)?
Its GI50 is 1190 nM.

What about the TGI (U251 CNS) of the same molecule?
Its TGI is greater than 57200 nM.

And the GI50 (HOP-92 NSCLC)?
The GI50 was 671 nM.

And the TGI (HOP-92 NSCLC)?
The TGI was 5130 nM.

And the GI50 (SK-MEL-5 melanoma)?
Its GI50 is 768 nM.

What about the TGI (SK-MEL-5 melanoma) of the same molecule?
The TGI was 3070 nM.

What about the GI50 (TK-10 renal) of the same molecule?
The GI50 was 1060 nM.

What about the TGI (TK-10 renal) of the same molecule?
Its TGI is greater than 63500 nM.

What about the GI50 (SK-OV-3 ovarian) of the same molecule?
Its GI50 is greater than 25900 nM.

What about the TGI (SK-OV-3 ovarian) of the same molecule?
The TGI was greater than 100000 nM.

And the GI50 (NCI-H522 lung)?
Its GI50 is 1600 nM.

What about the GI50 (IGROV1 ovarian) of the same molecule?
The GI50 was 696 nM.

What about the TGI (IGROV1 ovarian) of the same molecule?
Its TGI is greater than 100000 nM.

And the GI50 (SF-295 CNS)?
Its GI50 is 10000 nM.

And the TGI (SF-295 CNS)?
Its TGI is greater than 100000 nM.

And the GI50 (RPMI-8226 leukemia)?
The GI50 was 329 nM.

What about the TGI (RPMI-8226 leukemia) of the same molecule?
Its TGI is 2690 nM.

And the GI50 (786-0 renal)?
Its GI50 is 309 nM.

What about the TGI (786-0 renal) of the same molecule?
The TGI was 1620 nM.

What about the GI50 (OVCAR-4 ovarian) of the same molecule?
Its GI50 is 3510 nM.

What about the TGI (OVCAR-4 ovarian) of the same molecule?
The TGI was greater than 100000 nM.

What about the GI50 (HT29 colon) of the same molecule?
Its GI50 is 88 nM.

And the TGI (HT29 colon)?
The TGI was greater than 100000 nM.

What about the GI50 (SF-539 CNS) of the same molecule?
The GI50 was 2150 nM.

And the TGI (SF-539 CNS)?
Its TGI is 54400 nM.

And the GI50 (BT-549 breast)?
The GI50 was 222 nM.

And the TGI (BT-549 breast)?
The TGI was greater than 100000 nM.

And the GI50 (UO-31 renal)?
Its GI50 is 226 nM.

And the TGI (UO-31 renal)?
Its TGI is 641 nM.

What about the GI50 (HCC-2998 colon) of the same molecule?
Its GI50 is 2080 nM.

And the TGI (HCC-2998 colon)?
Its TGI is greater than 100000 nM.

What about the GI50 (OVCAR-5 ovarian) of the same molecule?
The GI50 was greater than 100000 nM.

And the TGI (OVCAR-5 ovarian)?
The TGI was greater than 100000 nM.

What about the GI50 (A549 NSCLC) of the same molecule?
Its GI50 is 2020 nM.

What about the TGI (A549 NSCLC) of the same molecule?
Its TGI is greater than 44800 nM.

What about the GI50 (SN12C renal) of the same molecule?
The GI50 was 4460 nM.

What about the TGI (SN12C renal) of the same molecule?
Its TGI is greater than 100000 nM.

What about the GI50 (HOP-62 NSCLC) of the same molecule?
Its GI50 is 690 nM.

What about the TGI (HOP-62 NSCLC) of the same molecule?
The TGI was greater than 42200 nM.

And the GI50 (MOLT-4 leukemia)?
The GI50 was 32 nM.

And the TGI (MOLT-4 leukemia)?
Its TGI is greater than 100000 nM.

And the GI50 (OVCAR-8 ovarian)?
The GI50 was 326 nM.

And the TGI (OVCAR-8 ovarian)?
Its TGI is greater than 100000 nM.

What about the GI50 (CCRF-CEM leukemia) of the same molecule?
The GI50 was 18.3 nM.

What about the TGI (CCRF-CEM leukemia) of the same molecule?
The TGI was greater than 100000 nM.

What about the GI50 (NCI-H460 lung) of the same molecule?
Its GI50 is 451 nM.

What about the TGI (NCI-H460 lung) of the same molecule?
The TGI was greater than 22800 nM.

And the GI50 (SW-620 colon)?
Its GI50 is 60.5 nM.

And the GI50 (KM12 colon)?
The GI50 was 262 nM.

And the TGI (KM12 colon)?
Its TGI is greater than 100000 nM.

And the GI50 (ACHN renal)?
Its GI50 is 670 nM.

What about the TGI (ACHN renal) of the same molecule?
Its TGI is greater than 55800 nM.

And the GI50 (SK-MEL-2 melanoma)?
Its GI50 is 1990 nM.

What about the TGI (SK-MEL-2 melanoma) of the same molecule?
The TGI was 6630 nM.

What about the GI50 (DU-145 prostate) of the same molecule?
Its GI50 is 355 nM.

And the TGI (DU-145 prostate)?
Its TGI is greater than 100000 nM.

And the GI50 (K-562 leukemia)?
Its GI50 is 3280 nM.

What about the TGI (K-562 leukemia) of the same molecule?
Its TGI is greater than 45400 nM.
